Where two headings read alike, the source gives them in different places. Values belong to the molecule of their own block, whether it stands above or below them.
Legend:
[1] = Diffusion of carvacrol in thyme essential oil through Franz diffusion cells that mimic human skin (UV-VIS, 272 nm); type: in vitro ADME
Procedure: The diffusion rates of carvacrol in thyme (Tymus vulgaris) essential oil through diffusion cells that mimic human skin were calculated and analyzed using UV-VIS spectrophotometry to measure carvacrol content. Franz diffusion cells from Permegeaer, USA, with 47 mm, 200 nm inert polycarbonate membrane filters, were used with 5 ml extract solution samples. […] The amount of carvacrol that passed through the filter was determined by absorbance graphics on a UV spectrophotometer (Agilent 8453). A standard calibration curve was determined for carvacrol and the absorbances were measured at 272 nm to determine the % concentrations released.
The diffusion rates of carvacrol in thyme (Tymus vulgaris) essential oil (0.05 ml of thyme essential oil) dispersed in 1 ml of soapwort extract solution through diffusion cells that mimic human skin were calculated and analyzed using UV-VIS spectrophotometry to measure carvacrol content. Franz diffusion cells from Permegear, USA, with 47 mm, 200 nm inert polycarbonate membrane filters, were used with 5 ml extract solution samples. The speed of diffusion of different thyme extracts were calculated at 1, 3, 5, 7, 10, 20, 40 minutes (and up to 1 day of duration) at a rotational speed of 50 rpm to mimic a dermal application. The amount of carvacrol that passed through the filter was determined by absorbance graphics on a UV spectrophotometer (Agilent 8453). A standard calibration curve was determined for carvacrol and the absorbances were measured at 272 nm to determine the % concentrations released.
The diffusion rates of carvacrol in thyme (Tymus vulgaris) essential oil (0.05 ml of thyme essential oil dispersed in 1 ml of licorice extract solution) through diffusion cells that mimic human skin were calculated and analyzed using UV-VIS spectrophotometry to measure carvacrol content. Franz diffusion cells from Permegeaer, USA, with 47 mm, 200 nm inert polycarbonate membrane filters, were used with 5 ml extract solution samples. The speed of diffusion of different thyme extracts were calculated at 1, 2, 3, 4, 7, 10, 20, 30, 40 minutes (and up to 1 day of duration) at a rotational speed of 50 rpm to mimic a dermal application. The amount of carvacrol that passed through the filter was determined by absorbance graphics on a UV spectrophotometer (Agilent 8453). A standard calibration curve was determined for carvacrol and the absorbances were measured at 272 nm to determine the % concentrations released.

[2] = type: physicochemical
Procedure: 100% of the carvacrol present in soapwort extract solution was released at the end of 40 minutes whereas about 90% of carvacrol present in licorice extract solution at the end of 40 minutes. When the solubilities were compared, it was observed that 0.5% of thyme oil was clearly dissolved in soapwort water extract and maximum 2% of thyme oil could be homogenously dispersed in soapwort. The maximum amount of thyme oil dissolved in licorice was 0.5%. Absorbance results clearly indicate that soapwort water extract has higher potential to dissolve and diffuse carvacrol of Thyme essential oil than does licorice.

[3] = type: in vitro ADME
Procedure: (§1) The diffusion rates of different rosemary extract solutions through diffusion cells that mimic human skin were calculated and analyzed using UV-VIS spectrophotometry to measure rosmarinic acid content. Franz diffusion cells from Permegear, USA, with 47 mm, 200 nm inert polycarbonate membrane filters, were used with 5 ml extract solution samples. The speed of diffusion of different rosemary extracts were calculated at 1, 2, 3, 4, 10, 20, 30, 60, 120, 360 minutes (and up to 1 day of duration) at a rotational speed of 50 rpm to mimic a dermal application. The amount of rosmarinic acid that passed through the filter was determined by absorbance graphics on a UV spectrophotometer (Agilent 8453). A standard calibration curve was determined for rosmarinic acid and the absorbances were measured at 323 nm to determine the % concentrations released.
For a reference or baseline sample, a decoction of rosemary in water alone was prepared at a 1:5 ratio.
A soapwort decoction (an extraction medium with a saponin content) was prepared in water at a 1:5 ratio. A consequent decoction of rosemary (i.e., a rosemary extract solution) was prepared in the mentioned soapwort decoction at a 1:5 ratio. […] Thus, the transdermal delivery of rosmarinic acid using the method of the present invention is much faster than classical water decoctions predominantly used in modern dermal or cosmetic formulations.
as §1, with “5, 40” for “4, 10, 20, 30, 60, 120, 360”
A soapwort decoction (an extraction medium with a saponin content) was prepared in water at a 1:5 ratio. A decoction of rosemary (i.e., a rosemary extract solution) was prepared in 5×distilled water. The mentioned soapwort decoction and the water decoction of the rosemary leaves were then mixed at a 1:1 ratio. The following diffusion values were measured for this mixture: 14% at minute 1, 49.4% at minute 3, and 100% at minute 5.
The diffusion rates of rosemarinic acid in rosemary essential oil through diffusion cells that mimic human skin were calculated and analyzed using UV-VIS spectrophotometry to measure rosmarinic acid content. Franz diffusion cells from Permegear, USA, with 47 mm, 200 nm inert polycarbonate membrane filters, were used with 5 ml extract solution samples. The speed of diffusion of different rosemary extracts were calculated at 1, 2, 3, 4, 7, 10, 20, 40 minutes (and up to 1 day of duration) at a rotational speed of 50 rpm to mimic a dermal application. The amount of rosmarinic acid that passed through the filter was determined by absorbance graphics on a UV spectrophotometer (Agilent 8453). A standard calibration curve was determined for rosmarinic acid and the absorbances were measured at 323 nm to determine the % concentrations released.

Molecule: Cc1ccc(C(C)C)cc1O [carvacrol]
diffusion ([1]; 0.05 ml thyme essential oil in 1 ml licorice extract solution, after 24 hours): 100%
diffusion value ([1]; 0.05 ml thyme essential oil in 1 ml licorice extract solution, minute 1): 0%
diffusion value ([1]; 0.05 ml thyme essential oil in 1 ml licorice extract solution, minute 2): 3.98%
diffusion value ([1]; 0.05 ml thyme essential oil in 1 ml licorice extract solution, minute 3): 14.41%
diffusion value ([1]; 0.05 ml thyme essential oil in 1 ml licorice extract solution, minute 4): 32.98%
diffusion value ([1]; 0.05 ml thyme essential oil in 1 ml licorice extract solution, minute 7): 42.59%
diffusion value ([1]; 0.05 ml thyme essential oil in 1 ml licorice extract solution, minute 10): 56.35%
diffusion value ([1]; 0.05 ml thyme essential oil in 1 ml licorice extract solution, minute 20): 67.61%
diffusion value ([1]; 0.05 ml thyme essential oil in 1 ml licorice extract solution, minute 30): 77.73%
diffusion value ([1]; 0.05 ml thyme essential oil in 1 ml soapwort extract solution, minute 1): 8.20%
diffusion value ([1]; 0.05 ml thyme essential oil in 1 ml soapwort extract solution, minute 3): 26.43%
diffusion value ([1]; 0.05 ml thyme essential oil in 1 ml soapwort extract solution, minute 5): 44.75%
diffusion value ([1]; 0.05 ml thyme essential oil in 1 ml soapwort extract solution, minute 7): 66.29%
diffusion value ([1]; 0.05 ml thyme essential oil in 1 ml soapwort extract solution, minute 10): 77.15%
diffusion value ([1]; 0.05 ml thyme essential oil in 1 ml soapwort extract solution, minute 20): 91.39%
diffusion value ([1]; 0.05 ml thyme essential oil in 1 ml soapwort extract solution, minute 40): 100%
transdermal delivery (in words) ([1]; thyme essential oil alone): negligible
carvacrol released ([1]; thyme essential oil alone, end of 40 minutes): 0%
absorbance values ([1]; thyme essential oil alone, end of 48 hours): minimal

maximum amount homogenously dispersed in soapwort [2]: 2%
Molecule: thyme oil

absorbance values [3]: minimal
fraction of the control sample diffusion time [3]: 1/30
penetration rate relative to control sample (only water decoction of rosemary) [3]: approximately 30 ×
transdermal delivery (in words) [3]: negligible
rosemarinic acid released ([3]; 40 min): 0%
rosmarinic acid content passed through the membrane ([3]; 150 min): 100%
Molecule: O=C(/C=C/c1ccc(O)c(O)c1)O[C@H](Cc1ccc(O)c(O)c1)C(=O)O [Rosmarinic Acid, rosmarinic acid]
